Data reported in US11945822B2, “Pyrazolo-triazine and/or pyrazolo-pxrimidine derivatives as selective inhibitor of cyclin dependent kinase” (QURIENT CO., LTD., priority 2018, dated 2024).

What follows are compounds tested against T1, CDK1/Cyclin B (Homo sapiens, UniProt P06493) (assay: Enzymatic assay for CDK1 (FRET based LANCE Ultra kinase assay)). Conditions: read-out: CDK1 enzymatic activity (IC50 range).
T1 construct: purchased Invitrogen PR4768C
Type: biochemical
Procedure, shortened: (§1)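 LANCE Ultra TR-FRET: ULight-MBP peptide (68 nM) with ATP at Km, […], 60 min at 23° C. EDTA plus Eu-anti-phospho-MBP added, another 60 min, then 665/615 nm emission read. Compounds tested as 8-dose 4-fold DMSO dilutions.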

T1 sequence (P06493 whole entry): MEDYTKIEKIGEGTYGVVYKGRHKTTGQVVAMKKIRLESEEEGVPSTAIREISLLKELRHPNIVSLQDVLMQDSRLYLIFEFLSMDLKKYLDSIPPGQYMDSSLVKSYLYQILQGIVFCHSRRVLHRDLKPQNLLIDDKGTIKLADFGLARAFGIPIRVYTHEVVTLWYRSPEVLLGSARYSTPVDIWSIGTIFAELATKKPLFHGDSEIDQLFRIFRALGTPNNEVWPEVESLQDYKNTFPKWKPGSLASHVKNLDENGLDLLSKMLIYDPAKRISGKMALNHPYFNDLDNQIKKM
T1 sequence (P14635 whole entry partner): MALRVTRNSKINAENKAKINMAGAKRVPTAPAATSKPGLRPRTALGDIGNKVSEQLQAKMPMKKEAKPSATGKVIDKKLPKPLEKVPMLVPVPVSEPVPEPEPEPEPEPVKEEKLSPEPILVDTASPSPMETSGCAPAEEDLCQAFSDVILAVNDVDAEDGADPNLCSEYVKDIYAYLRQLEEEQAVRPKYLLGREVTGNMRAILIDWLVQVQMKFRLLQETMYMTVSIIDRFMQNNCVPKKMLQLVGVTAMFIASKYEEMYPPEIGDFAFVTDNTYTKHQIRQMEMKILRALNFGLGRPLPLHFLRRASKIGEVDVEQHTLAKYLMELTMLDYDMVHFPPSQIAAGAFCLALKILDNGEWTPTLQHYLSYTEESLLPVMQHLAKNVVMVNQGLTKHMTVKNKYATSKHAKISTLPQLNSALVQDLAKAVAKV

Row | IC50 [nM] | SMILES
1 | > 1000 | CC(C)c1cnn2c(NCc3ccccc3-n3ccc(C(C)(C)O)n3)nc(N3CCC(CN)CC3)nc12 [Compound 221]
2 | > 1000 | CC(C)c1cnn2c(NCc3ccccc3-c3ccc4ccccc4n3)nc(NCC3CCNCC3O)nc12 (stereo not shown) [Compound 222]
3 | > 1000 | CC(C)c1cnn2c(NCc3ccccc3-n3ccc(C(C)(C)O)n3)nc(NCC3CCNCC3O)nc12 (stereo not shown) [Compound 223]
4 | > 1000 | CC(C)c1cnn2c(NCc3ccccc3-n3ccc(C(C)(C)O)n3)nc(NCC3CCNCC3)nc12 [Compound 224]

These compounds were tested against T2, CDK2/Cyclin A (Homo sapiens, UniProt P24941) (assay: Enzymatic assay for CDK2 (FRET based LANCE Ultra kinase assay)). Conditions: read-out: CDK2 enzymatic activity (IC50 range).
T2 construct: purchased Invitrogen PV6290
Type: biochemical
Procedure, shortened: as §1

Row | IC50 [nM] | SMILES
5 | > 1000 | CC(C)c1cnn2c(NCc3ccccc3-n3ccc(C(C)(C)O)n3)nc(N3CCC(CN)CC3)nc12 [Compound 221]
6 | 100 to 1000 | CC(C)c1cnn2c(NCc3ccccc3-c3ccc4ccccc4n3)nc(NCC3CCNCC3O)nc12 (stereo not shown) [Compound 222]
7 | > 1000 | CC(C)c1cnn2c(NCc3ccccc3-n3ccc(C(C)(C)O)n3)nc(NCC3CCNCC3O)nc12 (stereo not shown) [Compound 223]
8 | > 1000 | CC(C)c1cnn2c(NCc3ccccc3-n3ccc(C(C)(C)O)n3)nc(NCC3CCNCC3)nc12 [Compound 224]

Each compound was assayed against T3, CDK5/p25 (Homo sapiens, UniProt Q00535) (assay: Enzymatic assay for CDK5 (FRET based LANCE Ultra kinase assay)). Conditions: read-out: CDK5 enzymatic activity (IC50 range).
T3 construct: purchased Invitrogen PR8543B
T3 sequence (Q00535 whole entry): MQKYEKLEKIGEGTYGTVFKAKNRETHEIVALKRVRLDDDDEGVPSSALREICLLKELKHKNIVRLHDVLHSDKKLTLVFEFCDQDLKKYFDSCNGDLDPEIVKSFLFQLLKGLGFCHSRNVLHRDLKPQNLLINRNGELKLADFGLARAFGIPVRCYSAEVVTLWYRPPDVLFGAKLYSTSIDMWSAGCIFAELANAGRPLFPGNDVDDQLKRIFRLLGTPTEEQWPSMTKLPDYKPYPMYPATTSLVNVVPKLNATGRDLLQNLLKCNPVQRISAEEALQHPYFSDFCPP
T3 sequence (Q15078 99-307 partner limits assumed): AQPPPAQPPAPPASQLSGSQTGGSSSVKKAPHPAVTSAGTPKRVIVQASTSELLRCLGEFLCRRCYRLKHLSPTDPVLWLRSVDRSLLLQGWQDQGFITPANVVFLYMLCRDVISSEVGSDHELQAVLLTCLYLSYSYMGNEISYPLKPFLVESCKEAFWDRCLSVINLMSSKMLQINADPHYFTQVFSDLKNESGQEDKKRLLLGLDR
Type: biochemical
Procedure, shortened: as §1

Row | IC50 [nM] | SMILES
9 | > 1000 | CC(C)c1cnn2c(NCc3ccccc3-n3ccc(C(C)(C)O)n3)nc(N3CCC(CN)CC3)nc12 [Compound 221]
10 | 100 to 1000 | CC(C)c1cnn2c(NCc3ccccc3-c3ccc4ccccc4n3)nc(NCC3CCNCC3O)nc12 (stereo not shown) [Compound 222]
11 | > 1000 | CC(C)c1cnn2c(NCc3ccccc3-n3ccc(C(C)(C)O)n3)nc(NCC3CCNCC3O)nc12 (stereo not shown) [Compound 223]
12 | > 1000 | CC(C)c1cnn2c(NCc3ccccc3-n3ccc(C(C)(C)O)n3)nc(NCC3CCNCC3)nc12 [Compound 224]

Each compound was assayed against T4, CDK7/Cyclin H/MNAT1 (Homo sapiens, UniProt P50613) (assay: Enzymatic assay for CDK7 (FRET based LANCE Ultra kinase assay)). Conditions: CDK7 over CDK1.
T4 construct: purchased Invitrogen PR6749B
T4 sequence (P50613 whole entry): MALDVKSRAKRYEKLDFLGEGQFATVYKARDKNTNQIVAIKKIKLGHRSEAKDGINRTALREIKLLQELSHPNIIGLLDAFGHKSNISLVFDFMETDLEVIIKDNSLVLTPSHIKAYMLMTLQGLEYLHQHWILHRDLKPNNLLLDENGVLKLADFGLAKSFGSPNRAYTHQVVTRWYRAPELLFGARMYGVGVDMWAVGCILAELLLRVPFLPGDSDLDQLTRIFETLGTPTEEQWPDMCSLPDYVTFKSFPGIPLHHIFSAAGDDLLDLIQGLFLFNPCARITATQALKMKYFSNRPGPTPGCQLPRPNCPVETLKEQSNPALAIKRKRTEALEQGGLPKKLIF
T4 sequence (P51946 whole entry partner): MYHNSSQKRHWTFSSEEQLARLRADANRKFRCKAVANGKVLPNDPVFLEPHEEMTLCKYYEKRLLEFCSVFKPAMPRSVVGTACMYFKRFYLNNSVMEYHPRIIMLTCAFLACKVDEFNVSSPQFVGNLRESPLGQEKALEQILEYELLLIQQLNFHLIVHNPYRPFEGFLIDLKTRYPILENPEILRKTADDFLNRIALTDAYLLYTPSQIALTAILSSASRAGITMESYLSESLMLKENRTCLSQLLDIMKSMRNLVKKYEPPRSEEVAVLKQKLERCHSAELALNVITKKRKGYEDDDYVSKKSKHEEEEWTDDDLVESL
T4 sequence (P51948 whole entry partner): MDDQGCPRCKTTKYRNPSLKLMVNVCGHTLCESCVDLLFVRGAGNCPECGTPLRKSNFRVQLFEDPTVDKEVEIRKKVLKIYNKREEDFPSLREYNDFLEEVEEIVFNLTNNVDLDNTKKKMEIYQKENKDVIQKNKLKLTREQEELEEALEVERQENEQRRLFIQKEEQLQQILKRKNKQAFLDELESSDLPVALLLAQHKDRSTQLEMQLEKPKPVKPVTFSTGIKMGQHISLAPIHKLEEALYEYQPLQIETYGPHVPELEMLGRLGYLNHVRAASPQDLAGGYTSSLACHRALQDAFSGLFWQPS
Type: biochemical
Procedure, shortened: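 LANCE Ultra TR-FRET kinase assay using a ULight-labeled peptide substrate and a Eu-labeled anti-phospho antibody, with ATP at its Km. Purified CDK/cyclin complex was added to compound after brief centrifugation.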

Row | CDK1/CDK7: Selectivity of CDK7 inhibition over CDK1 inhibition | SMILES
13 | A (A=greater than 200 fold) | CC(C)c1cnn2c(NCc3ccccc3-n3ccc(C(C)(C)O)n3)nc(N3CCC(CN)CC3)nc12 [Compound 221]
14 | A (A=greater than 200 fold) | CC(C)c1cnn2c(NCc3ccccc3-c3ccc4ccccc4n3)nc(NCC3CCNCC3O)nc12 (stereo not shown) [Compound 222]
15 | A (A=greater than 200 fold) | CC(C)c1cnn2c(NCc3ccccc3-n3ccc(C(C)(C)O)n3)nc(NCC3CCNCC3O)nc12 (stereo not shown) [Compound 223]
16 | A (A=greater than 200 fold) | CC(C)c1cnn2c(NCc3ccccc3-n3ccc(C(C)(C)O)n3)nc(NCC3CCNCC3)nc12 [Compound 224]

Same assay, conditions: CDK7 over CDK2

Row | CDK2/CDK7: Selectivity of CDK7 inhibition over CDK2 inhibition | SMILES
17 | A (A=greater than 200 fold) | CC(C)c1cnn2c(NCc3ccccc3-n3ccc(C(C)(C)O)n3)nc(N3CCC(CN)CC3)nc12 [Compound 221]
18 | A (A=greater than 200 fold) | CC(C)c1cnn2c(NCc3ccccc3-c3ccc4ccccc4n3)nc(NCC3CCNCC3O)nc12 (stereo not shown) [Compound 222]
19 | A (A=greater than 200 fold) | CC(C)c1cnn2c(NCc3ccccc3-n3ccc(C(C)(C)O)n3)nc(NCC3CCNCC3)nc12 [Compound 224]

Row | SMILES | CDK2/CDK7: Selectivity of CDK7 inhibition over CDK2 inhibition
20 | CC(C)c1cnn2c(NCc3ccccc3-n3ccc(C(C)(C)O)n3)nc(NCC3CCNCC3O)nc12 (stereo not shown) [Compound 223] | B (B=less than 200 fold, but greater than 20 fold)

Same assay, conditions: CDK7 over CDK5

Row | CDK5/CDK7: Selectivity of CDK7 inhibition over CDK5 inhibition | SMILES
21 | A (A=greater than 200 fold) | CC(C)c1cnn2c(NCc3ccccc3-n3ccc(C(C)(C)O)n3)nc(N3CCC(CN)CC3)nc12 [Compound 221]
22 | A (A=greater than 200 fold) | CC(C)c1cnn2c(NCc3ccccc3-c3ccc4ccccc4n3)nc(NCC3CCNCC3O)nc12 (stereo not shown) [Compound 222]
23 | A (A=greater than 200 fold) | CC(C)c1cnn2c(NCc3ccccc3-n3ccc(C(C)(C)O)n3)nc(NCC3CCNCC3)nc12 [Compound 224]

Row | SMILES | CDK5/CDK7: Selectivity of CDK7 inhibition over CDK5 inhibition
24 | CC(C)c1cnn2c(NCc3ccccc3-n3ccc(C(C)(C)O)n3)nc(NCC3CCNCC3O)nc12 (stereo not shown) [Compound 223] | B (B=less than 200 fold, but greater than 20 fold)

Same assay, conditions: read-out: CDK7 enzymatic activity (IC50 range)

Row | IC50 [nM] | SMILES
25 | < 100 | CC(C)c1cnn2c(NCc3ccccc3-n3ccc(C(C)(C)O)n3)nc(N3CCC(CN)CC3)nc12 [Compound 221]
26 | < 100 | CC(C)c1cnn2c(NCc3ccccc3-c3ccc4ccccc4n3)nc(NCC3CCNCC3O)nc12 (stereo not shown) [Compound 222]
27 | < 100 | CC(C)c1cnn2c(NCc3ccccc3-n3ccc(C(C)(C)O)n3)nc(NCC3CCNCC3O)nc12 (stereo not shown) [Compound 223]
28 | < 100 | CC(C)c1cnn2c(NCc3ccccc3-n3ccc(C(C)(C)O)n3)nc(NCC3CCNCC3)nc12 [Compound 224]

The compounds below were run on HCT116 (assay: Cellular HCT116 viability assay (CellTiter-Glo, 72 hours)). Conditions: Homo sapiens, HCT-116.
Type: cell-based
Procedure, shortened: (§2)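 Cells were plated at line-specific densities and exposed to compound for 72 hours at 37 °C, 5% CO2, with DMSO-only wells as control (final DMSO below 0.1%). Viability was measured by CellTiter-Glo luminescence in duplicate.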

Row | IC50 [nM] | SMILES
29 | < 1000 | CC(C)c1cnn2c(NCc3ccccc3-n3ccc(C(C)(C)O)n3)nc(N3CCC(CN)CC3)nc12 [Compound 221]
30 | < 1000 | CC(C)c1cnn2c(NCc3ccccc3-c3ccc4ccccc4n3)nc(NCC3CCNCC3O)nc12 (stereo not shown) [Compound 222]
31 | < 1000 | CC(C)c1cnn2c(NCc3ccccc3-n3ccc(C(C)(C)O)n3)nc(NCC3CCNCC3O)nc12 (stereo not shown) [Compound 223]
32 | < 1000 | CC(C)c1cnn2c(NCc3ccccc3-n3ccc(C(C)(C)O)n3)nc(NCC3CCNCC3)nc12 [Compound 224]

These compounds were tested on H460 (assay: Cellular H460 viability assay (CellTiter-Glo, 72 hours)). Conditions: Homo sapiens, NCI-H460.
Type: cell-based
Procedure, shortened: as §2

Row | IC50 [nM] | SMILES
33 | < 1000 | CC(C)c1cnn2c(NCc3ccccc3-n3ccc(C(C)(C)O)n3)nc(N3CCC(CN)CC3)nc12 [Compound 221]
34 | < 1000 | CC(C)c1cnn2c(NCc3ccccc3-c3ccc4ccccc4n3)nc(NCC3CCNCC3O)nc12 (stereo not shown) [Compound 222]
35 | < 1000 | CC(C)c1cnn2c(NCc3ccccc3-n3ccc(C(C)(C)O)n3)nc(NCC3CCNCC3O)nc12 (stereo not shown) [Compound 223]
36 | < 1000 | CC(C)c1cnn2c(NCc3ccccc3-n3ccc(C(C)(C)O)n3)nc(NCC3CCNCC3)nc12 [Compound 224]

Each compound was assayed on MV4-11 (assay: Cellular MV4-11 viability assay (CellTiter-Glo, 72 hours)). Conditions: Homo sapiens.
Type: cell-based
Procedure, shortened: as §2

Row | IC50 [nM] | SMILES
37 | < 1000 | CC(C)c1cnn2c(NCc3ccccc3-n3ccc(C(C)(C)O)n3)nc(N3CCC(CN)CC3)nc12 [Compound 221]
38 | < 1000 | CC(C)c1cnn2c(NCc3ccccc3-c3ccc4ccccc4n3)nc(NCC3CCNCC3O)nc12 (stereo not shown) [Compound 222]
39 | < 1000 | CC(C)c1cnn2c(NCc3ccccc3-n3ccc(C(C)(C)O)n3)nc(NCC3CCNCC3O)nc12 (stereo not shown) [Compound 223]
40 | < 1000 | CC(C)c1cnn2c(NCc3ccccc3-n3ccc(C(C)(C)O)n3)nc(NCC3CCNCC3)nc12 [Compound 224]
